Experimental data reported in ChEMBL document CHEMBL4418302, “C-myc ligands capable of dimerizing in an aqueous solution, and methods of using same” (2016).
Active and inactive are the calls of the source. No cut-off for these calls is given here.

How the values were obtained:
K562 [1] = test: Antiproliferative activity against human K562 cells up to 30 uM incubated for 3 days by Cell-Titer 96 aqueous one solution cell proliferation assay; format: functional, cell-based
MV4-11 [2] = test: Antiproliferative activity against human MV411 cells up to 30 uM incubated for 3 days by Cell-Titer 96 aqueous one solution cell proliferation assay; format: functional, cell-based
Daudi [3] = test: Antiproliferative activity against human Daudi cells up to 30 uM incubated for 3 days by Cell-Titer 96 aqueous one solution cell proliferation assay; format: functional, cell-based
Daudi [4] = test: Antiproliferative activity against human Daudi cells incubated for 3 days by Cell-Titer 96 aqueous one solution cell proliferation assay; format: functional, cell-based; conditions: 72 h
[5] = molecular target: Myc proto-oncogene protein (Homo sapiens, UniProt P01106); test: Binding affinity to recombinant full-length DDK-tagged human c-Myc expressed in HEK293T cells assessed as inhibition of Max/c-Myc protein-protein interaction incubated for 1 hr by ELISA; format: cell-based
Sequence of Myc proto-oncogene protein (P01106 whole entry): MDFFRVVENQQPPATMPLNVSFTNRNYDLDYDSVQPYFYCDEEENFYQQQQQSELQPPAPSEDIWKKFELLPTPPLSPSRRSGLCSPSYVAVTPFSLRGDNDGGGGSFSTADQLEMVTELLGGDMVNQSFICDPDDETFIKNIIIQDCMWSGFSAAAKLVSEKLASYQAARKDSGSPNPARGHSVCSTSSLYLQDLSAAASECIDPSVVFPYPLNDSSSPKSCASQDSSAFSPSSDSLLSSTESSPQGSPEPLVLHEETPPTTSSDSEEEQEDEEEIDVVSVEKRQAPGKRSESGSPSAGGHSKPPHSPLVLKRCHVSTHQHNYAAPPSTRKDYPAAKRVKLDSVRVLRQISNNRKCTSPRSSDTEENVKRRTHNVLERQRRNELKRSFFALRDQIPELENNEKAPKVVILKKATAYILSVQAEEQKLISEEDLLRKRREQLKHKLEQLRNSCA

MV4-11 [6] = test: Antiproliferative activity against human MV411 cells incubated for 3 days by Cell-Titer 96 aqueous one solution cell proliferation assay; format: functional, cell-based; conditions: MV4-11, 72 h
K562 [7] = test: Antiproliferative activity against human K562 cells incubated for 3 days by Cell-Titer 96 aqueous one solution cell proliferation assay; format: functional, cell-based; conditions: K562, 72 h

SMILES | IC50 (Daudi [4]) [µM] | IC50 [5] [µM] | IC50 (MV4-11 [6]) [µM] | IC50 (K562 [7]) [µM] | Activity (K562 [1]) | Activity (MV4-11 [2]) | Activity (Daudi [3])
CCc1ccc(/C=C2\SC(=O)N(CCNC(=O)[C@H]3C[C@@H]4C[C@H]3[C@@H](O)[C@H]4O)C2=O)cc1 | > 30 | > 30 | > 30 | > 30 | inactive | inactive | inactive
CCc1ccc(/C=C2\SC(=O)N(CC[C@H]3C[C@@H]4C[C@H]3[C@@H](O)[C@H]4O)C2=O)cc1 |  | > 30 |  |  |  |  | 
CCc1ccc(/C=C2\SC(=O)NC2=O)cc1 |  | > 30 |  |  |  |  | 
CCc1ccc(/C=C2\SC(=O)N(CCNC(=O)[C@H]3C[C@H]4C=C[C@@H]3C4)C2=O)cc1 |  | > 30 |  |  |  |  | 
O=C(NCc1ccc(B(O)O)cc1)c1ccc(Nc2ccc([N+](=O)[O-])c3nonc23)cc1 |  |  |  |  | inactive | inactive | inactive
CCc1ccc(/C=C2\SC(=O)N(CC[C@H]3C[C@H]4C=C[C@@H]3C4)C2=O)cc1 (single isomer, unassigned) |  | > 30 |  |  |  |  | 

Second part, led by results:

IC50 (Daudi [4]) [µM] | IC50 [5] [µM] | IC50 (MV4-11 [6]) [µM] | IC50 (K562 [7]) [µM] | SMILES | Activity (K562 [1]) | Activity (MV4-11 [2]) | Activity (Daudi [3])
> 30 | > 30 | > 30 | > 30 | O=C(NCc1ccc(B(O)O)cc1)c1ccccc1Nc1ccc([N+](=O)[O-])c2nonc12 | inactive | inactive | inactive
 | > 30 |  |  | NC(=O)c1ccccc1Nc1ccc([N+](=O)[O-])c2nonc12 |  |  | 
> 30 |  | > 30 | > 30 | O=C(NCc1cccc(B(O)O)c1)c1ccccc1Nc1ccc([N+](=O)[O-])c2nonc12 | inactive | inactive | inactive
